Patent US9266904B2, “6-bridged heteroaryldihydropyrimidines for the treatment and prophylaxis of hepatitis B virus infection” (priority 2013, dated 2016)
≈ marks a conversion by molar mass, not a printed value.

Tests used:
[1] = Lyophilisation solubility assay (Lysa); assay type: physicochemical; details: pH 6.5, aqueous buffer, thermodynamic from solid
Description: The aqueous solubility is an important physico-chemical property that plays a significant role in various physical and biological processes. It is desirable to have good solubility which enables good permeability and gastric and intestinal absorption, linear dose proportionality, less PK variability, and easy formulation for PD/PK studies. […] Lyophilisation solubility assay (Lysa) is a well adopted high throughput assay to measure compound solubility in industry.
Samples are prepared in duplicate from 10 mM DMSO stock solutions. After evaporation of DMSO with a centrifugal vacuum evaporator, the residue is solved in 0.05 M phosphate buffer (pH 6.5), stirred for one hour and then shook for two hours. After one night, the solution is filtered using a microtiter filter plate and then the filtrate and its 1/10 dilution are then analyzed by direct UV measurement or by HPLC-UV. In addition a four-point calibration curve is prepared from the 10 mM stock solutions and used for the solubility determination of the compounds. The results are in μg/ml. In case the percentage of sample measured in solution after evaporation divided by the calculated maximum of sample amount is bigger than 80% the solubility is reported as bigger than this value.

[2] = Human microsomal clearance assay; assay type: in vitro ADME; details: human, 1 μM, pH 7.4
Description: Microsomes were preincubated with test compound for 10 minutes at 37° C. in 100 mM phosphate buffer with pH 7.4. The reactions were initiated by adding NADPH regenerating system to give a final incubation volume of 400 μL. The incubations finally contained 1 μM test compound, 0.5 mg/mL liver microsomal protein, 3.0 mM glucose 6-phosphate, 1.0 mM NADP, 3.0 mM MgCl2 and 0.05 mg/mL glucose 6-phosphate dehydrogenase in 100 mM phosphate buffer with pH 7.4. After incubation times of 0, 3, 6, 9, 15 and 30 minutes, 50 μL, incubation was transferred to the quench solution containing the internal standard which was 2 μM tolbutamide. After precipitation and centrifugation, test compound concentrations in the samples were determined by LC-MS/MS. Controls of no NADPH regenerating system at zero and 30 minutes were also prepared and analyzed.

[3] = test system: HBV replication in HepG2.2.15 cells; assay: Anti-HBV activity in vitro in HepG2.2.15 cells (extracellular HBV DNA by qPCR); assay type: cell-based; details: Hepatitis B virus, HepG2.2.15, Anti-HBV activity in HepG2.2.15 cells; read-out: EC50
Method in brief: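 Constitutively HBV-producing HepG2.2.15 cells were seeded overnight at 37 °C, then treated with half-log serial dilutions of compound (0.5% DMSO final) for five days. Supernatant HBV DNA was extracted and quantified by qPCR; EC50 is the concentration inhibiting HBV replication by 50%.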

Structure (SMILES) | solubility thermodynamic [1] | CLh [2] | EC50 [3]
CCOC(=O)C1=C(CN2[C@@H]3COC[C@H]2[C@H](F)[C@@H](CC(=O)O)C3)NC(c2nccs2)=N[C@H]1c1ccccc1Cl [Example 102, 2-[(1S,5S,6R,7R)-9-[[(4R)-4-(2-chlorophenyl)-5-ethoxycarbonyl-2-thiazol-2-yl-1,4-dihydropyrimidin-6-yl]methyl]-6-fluoro-3-oxa-9-azabicyclo[3.3.1]nonan-7-yl]acetic acid] | 410 µg/mL (≈ 728 µM) | 3.0 mL/min/kg | 66 nM
COC(=O)C1=C(CN2[C@H]3C[C@@H](CC(=O)O)C[C@@H]2C(F)(F)C3)NC(c2nccs2)=N[C@H]1c1ccc(F)c(F)c1 [Example 115, 2-[(1S,3R,5R)-8-[[(4S)-4-(3,4-difluoro-phenyl)-5-methoxycarbonyl-2-thiazol-2-yl-1,4-dihydropyrimidin-6-yl]methyl]-6,6-difluoro-8-azabicyclo[3.2.1]octan-3-yl]acetic acid] | 128 µg/mL (≈ 232 µM) | 4.6 mL/min/kg | 163 nM
COC(=O)C1=C(CN2[C@H]3CC[C@]2(C(=O)O)COC3)NC(c2nccs2)=N[C@H]1c1ccc(F)cc1Cl [Example 81, (1S,5R)-8-[[(4R)-4-(2-chloro-4-fluoro-phenyl)-5-methoxycarbonyl-2-thiazol-2-yl-1,4-dihydropyrimidin-6-yl]methyl]-3-oxa-8-azabicyclo[3.2.1]octane-5-carboxylic acid] | > 673 µg/mL | 0 mL/min/kg | 40.5 nM
COC(=O)C1=C(CN2C3COCC2CC(C(=O)O)C3)NC(c2nccs2)=N[C@H]1c1ccc(F)cc1Cl (stereo partly drawn) [Example 1, 9-[[(4R)-4-(2-chloro-4-fluoro-phenyl)-5-methoxycarbonyl-2-thiazol-2-yl-1,4-dihydropyrimidin-6-yl]methyl]-3-oxa-9-azabicyclo[3.3.1]nonane-7-carboxylic acid] | 540 µg/mL (≈ 1010 µM) | 3.0 mL/min/kg | 59 nM
COC(=O)C1=C(CN2[C@@H]3C[C@H](CC(=O)O)C[C@H]2C(F)(F)C3)NC(c2nccs2)=N[C@H]1c1ccc(F)c(F)c1 [Example 114, 2-[(1R,3S,5S)-8-[[(4S)-4-(3,4-difluorophenyl)-5-methoxycarbonyl-2-thiazol-2-yl-1,4-dihydropyrimidin-6-yl]methyl]-6,6-difluoro-8-azabicyclo[3.2.1]octan-3-yl]acetic acid] | 224 µg/mL (≈ 405 µM) | 1.2 mL/min/kg | 6.3 nM
COC(=O)C1=C(CN2[C@@H]3COC[C@H]2C[C@@H](CC(=O)O)C3)NC(c2nccs2)=N[C@H]1c1cccc(F)c1Cl [Example 55, 2-[(1R,5)-9-[[(4R)-4-(2-chloro-3-fluoro-phenyl)-5-methoxycarbonyl-2-thiazol-2-yl-1,4-dihydropyrimidin-6-yl]methyl]-3-oxa-9-azabicyclo[3.3.1]nonan-7-yl]acetic acid] | 505 µg/mL (≈ 920 µM) | 0 mL/min/kg | 22.3 nM
COC(=O)C1=C(CN2C3COCC2CN(C(=O)CO)C3)NC(c2nccs2)=N[C@H]1c1ccc(F)cc1Br [Example 53, Methyl (4R)-4-(2-bromo-4-fluoro-phenyl)-6-[[7-(2-hydroxyacetyl)-3-oxa-7,9-diazabicyclo[3.3.1]nonan-9-yl]methyl]-2-thiazol-2-yl-1,4-dihydropyrimidine-5-carboxylate] | 163 µg/mL (≈ 274 µM) | 7.0 mL/min/kg | 16.8 nM
COC(=O)C1=C(CN2C3COCC2C(O)[C@H](CC(=O)O)C3)NC(c2nccs2)=N[C@H]1c1ccc(F)cc1Cl (stereo partly drawn) [Example 123, 2-[(7S)-9-[[(4R)-4-(2-chloro-4-fluoro-phenyl)-5-methoxycarbonyl-2-thiazol-2-yl-1,4-dihydropyrimidin-6-yl]methyl]-6-hydroxy-3-oxa-9-azabicyclo[3.3.1]nonan-7-yl]acetic acid] | > 753 µg/mL | 3.0 mL/min/kg | 35.7 nM
COC(=O)C1=C(CN2C3COCC2CC(CC(=O)O)C3)NC(c2nccs2)=N[C@H]1c1ccc(Cl)c(F)c1 (stereo partly drawn) [Example 136, Endo-2-[9-[[(4S)-4-(4-chloro-3-fluoro-phenyl)-5-methoxycarbonyl-2-thiazol-2-yl-1,4-dihydropyrimidin-6-yl]methyl]-3-oxa-9-azabicyclo[3.3.1]nonan-7-yl]acetic acid] | 485 µg/mL (≈ 883 µM) | 5.5 mL/min/kg | 102 nM
COC(=O)C1=C(CN2[C@H]3COC[C@@H]2[C@@H](F)[C@H](CC(=O)O)C3)NC(c2nccs2)=N[C@H]1c1cccc(F)c1Cl [Example 101, 2-[(1R,5R,6S,7S)-9-[[(4R)-4-(2-chloro-3-fluoro-phenyl)-5-methoxycarbonyl-2-thiazol-2-yl-1,4-dihydropyrimidin-6-yl]methyl]-6-fluoro-3-oxa-9-azabicyclo[3.3.1]nonan-7-yl]acetic acid] | 580 µg/mL (≈ 1020 µM) | 0 mL/min/kg | 24 nM
CCOC(=O)C1=C(CN2C3COCC2CC(CC(=O)O)C3)NC(c2nccs2)=N[C@H]1c1ccc(F)c(F)c1 (stereo partly drawn) [Example 29, (S)-6-(7-Carboxymethyl-3-oxa-9-aza-bicyclo[3.3.1]non-9-ylmethyl)-4-(3,4-difluoro-phenyl)-2-thiazol-2-yl-1,4-dihydro-pyrimidine-5-carboxylic acid ethyl ester] | > 600 µg/mL | 1.7 mL/min/kg | 34.3 nM
COC(=O)C1=C(CN2C3COCC2C(O)[C@@H](CC(=O)O)C3)NC(c2nccs2)=N[C@H]1c1ccc(F)cc1Cl (stereo partly drawn) [Example 124, 2-[(7R)-9-[[(4R)-4-(2-chloro-4-fluoro-phenyl)-5-methoxycarbonyl-2-thiazol-2-yl-1,4-dihydropyrimidin-6-yl]methyl]-6-hydroxy-3-oxa-9-azabicyclo[3.3.1]nonan-7-yl]acetic acid] | > 753 µg/mL | 4.2 mL/min/kg | 296 nM
COC(=O)C1=C(CN2C3COCC2C(C(=O)O)C3)NC(c2nccs2)=N[C@H]1c1ccc(F)cc1Cl (stereo partly drawn) [Example 6, 8-[(R)-6-(2-Chloro-4-fluoro-phenyl)-5-methoxycarbonyl-2-thiazol-2-yl-3,6-dihydro-pyrimidin-4-ylmethyl]-3-oxa-8-aza-bicyclo[3.2.1]octane-6-carboxylic acid] | > 665 µg/mL | 0.5 mL/min/kg | 32 nM
CCOC(=O)C1=C(CN2C3COCC2C(OCC(=O)O)C3)NC(c2nccs2)=N[C@H]1c1ccc(F)cc1Br (mixture of isomers) [Example 50, 2-[[8-[[(4R)-4-(2-bromo-4-fluoro-phenyl)-5-ethoxycarbonyl-2-thiazol-2-yl-1,4-dihydropyrimidin-6-yl]methyl]-3-oxa-8-azabicyclo[3.2.1]octan-6-yl]oxy]acetic acid] | > 724 µg/mL | 1.4 mL/min/kg | 24.1 nM
COC(=O)C1=C(CN2C3COCC2CC(CC(=O)O)C3)NC(c2nccs2)=N[C@H]1c1ccccc1Br (stereo partly drawn) [Example 134, Endo-2-[9-[[(4R)-4-(2-bromophenyl)-5-methoxycarbonyl-2-thiazol-2-yl-1,4-dihydropyrimidin-6-yl]methyl]-3-oxa-9-azabicyclo[3.3.1]nonan-7-yl]acetic acid] | > 695 µg/mL | 1.7 mL/min/kg | 21 nM
COC(=O)C1=C(CN2C3COCC2CC(N)(C(=O)O)C3)NC(c2nccs2)=N[C@H]1c1ccc(F)cc1Cl (stereo partly drawn) [Example 139, 7-amino-9-[[(4R)-4-(2-chloro-4-fluoro-phenyl)-5-methoxycarbonyl-2-thiazol-2-yl-1,4-dihydropyrimidin-6-yl]methyl]-3-oxa-9-azabicyclo[3.3.1]nonane-7-carboxylic acid] | > 610 µg/mL | 5.1 mL/min/kg | 172 nM
COC(=O)C1=C(CN2C3COCC2C(F)(F)[C@@H](CC(=O)O)C3)NC(c2nccs2)=N[C@H]1c1ccc(F)cc1Cl (stereo partly drawn) [Example 125, 2-[(7R)-9-[[(4R)-4-(2-chloro-4-fluoro-phenyl)-5-methoxycarbonyl-2-thiazol-2-yl-1,4-dihydropyrimidin-6-yl]methyl]-6,6-difluoro-3-oxa-9-azabicyclo[3.3.1]nonan-7-yl]acetic acid] | 170 µg/mL (≈ 291 µM) | 0 mL/min/kg | 26.1 nM
COC(=O)C1=C(CN2[C@H]3CC[C@]2(C(=O)O)CC3(F)F)NC(c2nccs2)=N[C@H]1c1ccc(F)cc1Cl [Example 148, (1S,4R)-7-[[(4R)-4-(2-chloro-4-fluoro-phenyl)-5-methoxycarbonyl-2-thiazol-2-yl-1,4-dihydropyrimidin-6-yl]methyl]-2,2-difluoro-7-azabicyclo[2.2.1]heptane-4-carboxylic acid] | > 655 µg/mL | 2.3 mL/min/kg | 59.2 nM
